Experimental data as given in patent US8133986B2, “Methylated CpG island amplification (MCA)” (The Johns Hopkins University School of Medicine, priority 1998, dated 2012).

Experiments:
Type in all cases: cell-based, human
versican = assay: RT-PCR expression of versican in methylated colon cancer cell lines after demethylating treatment; settings: 1 μM for 2-5 days
Excerpt: To determine whether some of these clones truly represented genes silenced by methylation, we examined the versican gene in more detail. Versican is a secreted glycoprotein that appears to be regulated by the Rb tumor suppressor gene. MINT11 corresponds to part of exon 1 and part of intron 1 of the versican gene (FIG. 3A). Hypermethylation of the two SmaI sites in exon 1 and intron 1 in colon cancer cell lines was confirmed by both Southern blot analysis and MCA. In order to determine if this methylation was representative of the entire CGI, including the proximal promoter, PCR was performed on bisulfite-treated DNA using primers designed to amplify the region around the transcription start site of this gene. The PCR product was then digested with restriction enzymes that distinguish methylated from unmethylated DNA. […] In primary colon tumors, versican was hypermethylated in 17 out of 25 cases (68%). […] The level of methylation in normal colon mucosa increased with age of the patient (FIG. 3C), from an average of 6.9% in patients between 20 and 30 years of age, to an average of 28.9% in patients over 80. […] Using RT-PCR, we next examined the expression of versican in normal colon mucosa and CRC cell lines.
Total RNA was prepared from normal colon epithelium and tumor cell lines using TRIZOL (GIBCO-BRL). […] The expression of versican was determined by RT-PCR using the primers […]

CACNA1G = assay: Re-expression of CACNA1G mRNA (RT-PCR) in methylated tumor cell lines after methyl-transferase inhibitor treatment; parameters: dose or concentration left out as unconfirmed; settings: RKO, SW48, Raji (pattern 4) and MB-231, MB-435 (pattern 5) cell lines; treated
Experimental: To determine the expression of CACNA1G in normal and neoplastic human cells, RT-PCR was performed using cDNA from various normal tissues and from a panel of 27 tumor cell lines. CACNA1G was expressed ubiquitously in a variety of tissues and cell lines. In normal tissues expression was relatively low but easily detectable, while most cell lines had relatively high expression of CACNA1G. However, some cell lines had negligible or totally absent levels of CACNA1G expression. The results of CACNA1G expression was correlated with the detailed methylation analysis previously described. In this analysis, a remarkable pattern emerged. Methylation of region 1-4 and 8 had no effect on CACNA1G expression. However, there was a strong correlation between methylation of regions 5-7 and expression of the gene. In fact, all cell lines that lack methylation of this region strongly express the gene. All 6 cell lines with pattern 4 methylation studied had no detectable expression. Finally, the 7 cell lines with pattern 5 methylation (examples DLD-1 and MB-453) had variable levels of expression ranging from very low to near normal. […]
Total RNA was prepared from normal colon epithelium and tumor cell lines using TRIZOL (GIBCO-BRL). […] The expression of versican was determined by RT-PCR using the primers

[1] = test system: region 7 of CACNA1G CpG island; assay: Bisulfite-PCR methylation analysis of the 5′ CpG island of CACNA1G after treatment; settings: same cell lines after treatment; bisulfite-PCR (FIG. 3C)
Excerpt: The CACNA1G CpG island is 4 kb, and is larger than many typical CpG islands. MINT31 corresponds to the 5′ edge of the island while CACNA1G is in the 3′ region. It is not known whether large CpG islands such as this are coordinately regulated with regards to protection from methylation, and aberrant methylation in cancer. To address this issue, the methylation status of the 5′ region of CACNA1G was studied using bisulfite-PCR of DNA from normal tissues as well as 35 human cancer cell lines from colon, lung, prostate, breast and hematopoietic tumors. The CpG island was divided into 8 regions and their methylation status was examined separately. The genomic DNA was treated with sodium bisulfite and PCR amplified using primers containing no or a minimum number of CpG sites. Methylated alleles were detected by digesting the PCR products using restriction enzymes which specifically cleave sites created or retained due to the presence of methylated CpGs. None of the regions was methylated in normal colon, consistent with a uniform protection against de-novo methylation. […]

With `Nc1ncn([C@H]2C[C@H](O)[C@@H](CO)O2)c(=O)n1` [5-aza-deoxycytidine, 5-aza-2′-deoxycytidine] the Expression of versican (versican) was “easily restored”, the “CACNA1G mRNA expression” value (CACNA1G) was “re-expressed” and the “Methylation of region 7 of CACNA1G” value [1] was “demethylation of region 7 was observed”.
